The test system of one assay is Staphylococci. The assay is described as follows: Antibiotic-sensitivity of staphylococci from skin lesions (MIC, series cultivation). The assay is classed as cell-based. The text has this: Staphylococci extracted from dermal lesions were initially sensitive to 10 of the 15 antibiotics being assayed (Table 25).
Assay [1] deals with methicillin-resistant Staphylococcal aureus. To be noted: 5 test animals.
Assay [2] relates to Mycobacterium tuberculosis. To be noted: in vivo.
The mark [3] stands for this setting: staphylococci from patients After IM862.
Where [4] appears, read: staphylococci from patients Before IM862.

The results in this text go back to patent publication US20030198617A1, “Pharmaceutical tryptophan containing dipeptide compositions and methods of use thereof” (priority 1993, published 2003).

Read-outs that look alike come from different tables or passages of the source. Marks after values point to notes of the source that are not given here.

`CC1(C)S[C@@H]2[C@H](NC(=O)[C@H](N)c3ccccc3)C(=O)N2[C@H]1C(=O)O` [Ampicillin, reference compound]: the results for the MIC g/ml against Staphylococci (setting [3]) and with Staphylococci (setting [4]) were 2.64 ± 0.60^yy g/ml and 8.10 ± 0.49^x g/ml, respectively. Besides, the Survivors entry in assay [1] (100 mg/kg Ampicillin, pre-treated with normal saline i.p.) is “no survivors”; in assay [1] (Group 1: IM862 control (0) pretreatment, ampicillin 100 mg/kg 1 hr after inoculation, survivors at 72 hours), 0. Also, the “Percent ip Survivors” value in assay [1] (Group 1: IM862 control (0) pretreatment, ampicillin 100 mg/kg 1 hr after inoculation, 72 hours) is recorded as 0%.
Consider `Cc1nnc(SCC2=C(C(=O)O)N3C(=O)[C@@H](NC(=O)Cn4cnnn4)[C@H]3SC2)s1` [Cefamezin], for which the MIC g/ml with Staphylococci (setting [3]) is 1.33 ± 0.53^yy g/ml.
On to `NC[C@H]1O[C@H](O[C@H]2[C@H](O)[C@@H](O[C@H]3O[C@H](CO)[C@@H](O)[C@H](N)[C@H]3O)[C@H](N)C[C@@H]2N)[C@H](O)[C@@H](O)[C@@H]1O` [Kanamycin], for which the results for the MIC g/ml in the assay with Staphylococci (setting [3]) and against Staphylococci (setting [4]) were 2.09 ± 0.54^yy g/ml and 6.32 ± 0.58^x g/ml, respectively.
`CC(=O)OCC1=C(C(=O)O)N2C(=O)[C@@H](NC(=O)Cc3cccs3)[C@H]2SC1` [Keflin]: the MIC g/ml against Staphylococci (setting [3]) is 1. ± 0.69^y g/ml.
Still for that read-out and setting: in the case of `Cc1nnc(SCC2=C(C(=O)O)N3C(=O)[C@@H](NC(=O)Cn4cnnn4)[C@H]3SC2)s1` [Kefzol] it was 1.86 ± 0.93^y g/ml.
In the case of `O=C(N[C@H](CO)[C@H](O)c1ccc([N+](=O)[O-])cc1)C(Cl)Cl` [Levomicetin], the MIC g/ml in the assay on Staphylococci (setting [3]) is recorded as 4.58 ± 0.67^yy g/ml; against Staphylococci (setting [4]) it was 9.17 ± 0.36^x g/ml.
For `Cc1onc(-c2ccccc2)c1C(=O)N[C@@H]1C(=O)N2[C@@H]1SC(C)(C)[C@@H]2C(=O)O` [Oxycillin], the MIC g/ml against Staphylococci (setting [3]) was 1.56 ± 0.45^yy g/ml; against Staphylococci (setting [4]), 5.11 ± 0.63^x g/ml.
For `[H]/N=C(/N)N[C@H]1[C@H](O)[C@@H](O)[C@H](O[C@@H]2O[C@@H](C)[C@](O)(C=O)[C@H]2O[C@@H]2O[C@@H](CO)[C@H](O)[C@@H](O)[C@@H]2NC)[C@@H](N/C(N)=N\[H])[C@@H]1O` [Streptomycin], in that order: 3.39 ± 0.66^yy g/ml and 6.71 ± 0.59^x g/ml.
For the compound `c1ccc([C@H]2CN3CCSC3=N2)cc1` [decaris, reference compound], in assay [2], the “disintegration cavities closed, number of patients” value is recorded as 10 patients; the “improvement, number of patients” value was 18; the “no improvement, number of patients” value is given as 3 patients; the “significant improvement, number of patients” value was “only one case”.
For the compound Gentamycin, the results for the MIC g/ml with Staphylococci (setting [3]) and against Staphylococci (setting [4]) were 1.32 ± 0.49^yy g/ml and 5.47 ± 0.92^x g/ml, respectively.
Consider Penicillin, for which the MIC g/ml is on record as 2.52 ± 0.70^yy g/ml against Staphylococci (setting [3]) and 9.45 ± 0.28^x g/ml in the assay with Staphylococci (setting [4]).
